Measured values as given in patent publication US5739273A, “Transmembrane polypeptide and methods of use” (Yale University, priority 1994, dated 1998).
Residues, ends and D or L forms follow the SMILES beside them.

Assay: circular dichroism titration in the presence of small unilamellar phospholipid vesicles
Format: physicochemical
Details: circular dichroism at 222 nanometers vs pH, DMPC small unilamellar vesicles
Text: FIG. 5A is a graph showing the circular dichroism analysis of the synthetic polypeptide of FIG. 1 in the presence of dimyristoyl phosphatidylcholine (DMPC) vesicles at various pH values. The black squares indicate the initial titration (down). The open circles indicate the reverse titration (up). The open triangles indicate the second titration (down).
The well-known spectroscopic technique of polarized infrared linear dichroism is used to determine the orientation of the alpha-helical domain of the polypeptide. The orientation of the polypeptide in protein/phospholipid multilayers is inferred from the dichroism of two amide vibrations.
FIG. 5A is a graph showing circular dichroism titration of the synthetic polypeptide having the amino acid sequence set forth in FIG. 1 and sequence listing identification number 1, in the presence of a solution containing small unilamellar phospholipid vesicles made from synthetic dimyristoyl phosphatidylcholine. The y axis is millidegrees at 222 nanometers, and the x axis is pH. […] FIG. 5B is a corresponding control graph showing circular dichroism titration of the polypeptide in the […] of lipid molecules.

## CC[C@H](C)[C@H](NC(=O)[C@@H]1CCCN1C(=O)[C@H](CC(N)=O)NC(=O)[C@H](CCC(N)=O)NC(=O)[C@H](CCC(=O)O)NC(=O)CNC(=O)CN)C(=O)N[C@@H](Cc1ccc(O)cc1)C(=O)N[C@@H](Cc1c[nH]c2ccccc12)C(=O)N[C@@H](C)C(=O)N[C@@H](CCCNC(=N)N)C(=O)N[C@@H](Cc1ccc(O)cc1)C(=O)N[C@@H](C)C(=O)N[C@@H](CC(=O)O)C(=O)N[C@@H](Cc1c[nH]c2ccccc12)C(=O)N[C@@H](CC(C)C)C(=O)N[C@@H](Cc1ccccc1)C(=O)N[C@H](C(=O)N[C@H](C(=O)N1CCC[C@H]1C(=O)N[C@@H](CC(C)C)C(=O)N[C@@H](CC(C)C)C(=O)N[C@@H](CC(C)C)C(=O)N[C@@H](CC(C)C)C(=O)N[C@@H](CC(=O)O)C(=O)N[C@@H](CC(C)C)C(=O)N[C@@H](C)C(=O)N[C@@H](CC(C)C)C(=O)N[C@@H](CC(C)C)C(=O)N[C@H](C(=O)N[C@@H](CC(=O)O)C(=O)N[C@@H](C)C(=O)N[C@@H](CC(=O)O)C(=O)N[C@@H](CCC(=O)O)C(=O)NCC(=O)N[C@H](C(=O)O)[C@@H](C)O)C(C)C)[C@@H](C)O)[C@@H](C)O [synthetic polypeptide] (H-GGEQNPIYWARYADWLFTTPLLLLDLALLVDADEGT-OH)
  pKa of formation of a polypeptide alpha-helix: 6.0
